Laboratory results published in paper PMC6303390, “Nucleotide-dependent DNA gripping and an end-clamp mechanism regulate the bacteriophage T4 viral packaging motor” (Nature Communications, 2018).

Experiments:
[1] = biological target: T1, bacteriophage T4 packaging motor (gp17 on emptied T4 heads) (Tequatrovirus T4, UniProt P17312); assay: optical tweezers single-DNA grip/slip assay with solution exchange; type: binding; details: 0.5 mM ADP, 5 pN force; 50 mM Tris-HCl pH 7.5, 5 mM MgCl2, 80 mM NaCl
T1 construct: gene 17; N-terminally His-tagged recombinant gp17 from E. coli, assembled as pentamer on emptied heads (10am13am mutant phage) that carry the gp20 portal; with Portal protein

[2] = biological target: T1, bacteriophage T4 packaging motor (gp17 on emptied T4 heads); assay: optical tweezers single-DNA packaging assay; type: biochemical; details: ATP-driven DNA translocation; 50 mM Tris-HCl pH 7.5, 5 mM MgCl2, 80 mM NaCl

T1 sequence (P17312 whole entry): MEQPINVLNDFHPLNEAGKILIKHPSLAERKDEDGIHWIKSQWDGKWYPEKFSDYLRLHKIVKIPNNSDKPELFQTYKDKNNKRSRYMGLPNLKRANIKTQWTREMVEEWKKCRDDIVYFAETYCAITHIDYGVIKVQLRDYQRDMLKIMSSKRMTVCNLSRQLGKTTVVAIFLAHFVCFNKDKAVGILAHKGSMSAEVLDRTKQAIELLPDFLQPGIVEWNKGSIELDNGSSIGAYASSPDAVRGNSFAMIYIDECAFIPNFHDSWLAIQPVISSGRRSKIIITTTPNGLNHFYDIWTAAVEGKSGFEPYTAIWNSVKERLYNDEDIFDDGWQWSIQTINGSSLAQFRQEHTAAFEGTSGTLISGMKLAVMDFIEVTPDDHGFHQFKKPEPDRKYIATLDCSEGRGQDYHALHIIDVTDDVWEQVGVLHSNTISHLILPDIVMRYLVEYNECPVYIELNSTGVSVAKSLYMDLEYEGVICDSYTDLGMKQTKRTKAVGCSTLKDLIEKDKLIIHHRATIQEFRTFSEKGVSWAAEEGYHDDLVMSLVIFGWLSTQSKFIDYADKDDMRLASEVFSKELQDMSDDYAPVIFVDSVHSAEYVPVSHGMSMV

| SMILES | optical tweezers single-DNA grip/slip assay with solution exchange [1] | optical tweezers single-DNA packaging assay [2] |
| --- | --- | --- |
| Nc1ncnc2c1ncn2[C@@H]1O[C@H](COP(=O)(O)OP(=O)(O)O)[C@@H](O)[C@H]1O [ADP] | when ADP is used highly intermittent gripping is observed |  |
| Nc1ncnc2c1ncn2[C@@H]1O[C@H](COP(=O)(O)OP(=O)(O)OP(=O)(O)O)[C@@H](O)[C@H]1O [ATP] |  | In each case the motor restarts when the complex is moved back into ATP |
